Results on 34 compounds are retold here after ChEMBL document CHEMBL4130448, “Novel SERMs based on 3-aryl-4-aryloxy-2H-chromen-2-one skeleton - A possible way to dual ERα/VEGFR-2 ligands for treatment of breast cancer” (Eur J Med Chem, 2017).

Test [1] has as its system Ishikawa. In words: cells. To be noted: Homo sapiens, 48 h.
Description: Cytotoxicity in human Ishikawa cells assessed as inhibition of cell growth incubated for 48 hrs by MTT assay
For test [2], the system named is MCF7. In words: cells. To be noted: Homo sapiens, MCF7, 48 h.
Description: Cytotoxicity in human MCF7 cells assessed as inhibition of cell growth incubated for 48 hrs by MTT assay
Test [3] has as its target T1, Estrogen receptor (Homo sapiens, UniProt P03372).
T1 sequence (P03372 whole entry): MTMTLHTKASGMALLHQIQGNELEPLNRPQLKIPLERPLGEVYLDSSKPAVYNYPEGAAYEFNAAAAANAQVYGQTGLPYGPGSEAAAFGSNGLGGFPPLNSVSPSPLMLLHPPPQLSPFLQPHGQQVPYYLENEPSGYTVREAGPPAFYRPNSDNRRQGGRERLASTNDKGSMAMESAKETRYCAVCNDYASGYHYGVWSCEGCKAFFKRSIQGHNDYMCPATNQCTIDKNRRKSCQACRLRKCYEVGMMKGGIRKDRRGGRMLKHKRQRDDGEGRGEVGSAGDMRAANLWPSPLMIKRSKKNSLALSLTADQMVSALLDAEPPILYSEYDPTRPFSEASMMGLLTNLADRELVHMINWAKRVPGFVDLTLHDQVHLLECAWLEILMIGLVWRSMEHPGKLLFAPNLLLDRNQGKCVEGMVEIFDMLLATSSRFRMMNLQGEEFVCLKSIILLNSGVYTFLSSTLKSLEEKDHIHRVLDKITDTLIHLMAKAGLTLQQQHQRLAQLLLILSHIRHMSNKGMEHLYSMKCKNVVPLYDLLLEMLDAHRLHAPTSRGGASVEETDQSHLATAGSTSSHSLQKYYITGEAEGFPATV
In words: Displacement of fluorescent estrogen ligand from recombinant human ERalpha expressed in insect cells incubated for 2 hrs by polarization.

In test [4] the test system is HUVEC. Put plainly: Antiangiogenic activity against HUVEC incubated for 48 hrs by MTT assay. To be noted: Homo sapiens. Format: functional, cell-based. (Formazan colour is commonly taken as a measure of viable cells.)
Test [5] deals with Vascular endothelial growth factor receptor 2 (Homo sapiens) (UniProt P35968). In words: Inhibition of His-tagged human VEGFR2 at 40 uM incubated for 1 hr by HTRF assay. Background: Time-resolved FRET reads energy transfer from a long-lived donor to a nearby acceptor.

Bounds are passed on as bounds.

Chain of Vascular endothelial growth factor receptor 2 (Homo sapiens) (P35968 whole entry): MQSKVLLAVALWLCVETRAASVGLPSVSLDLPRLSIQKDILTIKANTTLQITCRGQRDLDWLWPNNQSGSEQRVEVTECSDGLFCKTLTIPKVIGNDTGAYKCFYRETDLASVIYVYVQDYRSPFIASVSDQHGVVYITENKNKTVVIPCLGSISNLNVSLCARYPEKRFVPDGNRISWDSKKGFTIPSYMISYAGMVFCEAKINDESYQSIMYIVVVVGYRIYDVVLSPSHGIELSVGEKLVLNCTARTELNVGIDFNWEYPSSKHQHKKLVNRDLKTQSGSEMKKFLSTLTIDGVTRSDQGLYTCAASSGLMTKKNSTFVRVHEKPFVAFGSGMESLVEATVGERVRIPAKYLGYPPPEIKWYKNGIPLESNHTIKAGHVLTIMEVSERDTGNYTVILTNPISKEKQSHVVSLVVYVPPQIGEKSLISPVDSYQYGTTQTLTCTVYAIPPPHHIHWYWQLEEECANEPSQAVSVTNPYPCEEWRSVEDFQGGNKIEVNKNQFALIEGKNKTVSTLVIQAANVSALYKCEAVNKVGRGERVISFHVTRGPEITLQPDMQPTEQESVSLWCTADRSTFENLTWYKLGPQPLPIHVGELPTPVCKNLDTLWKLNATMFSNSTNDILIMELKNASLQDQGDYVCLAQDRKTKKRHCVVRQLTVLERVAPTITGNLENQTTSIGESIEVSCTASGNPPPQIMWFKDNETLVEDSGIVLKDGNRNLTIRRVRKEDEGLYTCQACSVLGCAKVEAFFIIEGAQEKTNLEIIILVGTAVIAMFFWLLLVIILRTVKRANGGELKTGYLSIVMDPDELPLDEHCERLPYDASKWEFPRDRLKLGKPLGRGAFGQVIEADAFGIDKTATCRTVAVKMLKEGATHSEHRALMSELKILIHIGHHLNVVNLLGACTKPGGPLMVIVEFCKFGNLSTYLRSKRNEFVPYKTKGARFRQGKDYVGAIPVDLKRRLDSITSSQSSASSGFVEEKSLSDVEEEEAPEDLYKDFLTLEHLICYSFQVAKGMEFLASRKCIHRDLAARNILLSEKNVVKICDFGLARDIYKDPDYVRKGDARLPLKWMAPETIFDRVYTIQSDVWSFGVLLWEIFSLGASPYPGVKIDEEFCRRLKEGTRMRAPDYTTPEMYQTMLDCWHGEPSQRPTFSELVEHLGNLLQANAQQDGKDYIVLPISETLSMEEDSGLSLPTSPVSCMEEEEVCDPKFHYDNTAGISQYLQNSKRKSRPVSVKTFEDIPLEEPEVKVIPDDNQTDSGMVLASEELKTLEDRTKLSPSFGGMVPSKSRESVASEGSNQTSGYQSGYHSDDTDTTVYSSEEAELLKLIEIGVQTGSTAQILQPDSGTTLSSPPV

What is called IC50 is the concentration at which inhibition is half-maximal. In the case of `O=c1oc2ccccc2c(Nc2ccc(OCCN3CCCC3)cc2)c1-c1ccc(F)cc1`, the concentration for half-maximal inhibition (IC50) in test [1] was 25.7 µM; in test [2], 26.1 µM; in test [3], greater than 10 µM.
Taken in the same sequence, the figures for `CCN(CC)CCOc1ccc(Oc2c(-c3ccc(O)cc3)c(=O)oc3cc(O)ccc23)cc1` were greater than 50 µM, greater than 50 µM and greater than 10 µM.
Take `CCN(CC)CCOc1ccc(Nc2c(-c3ccc(F)cc3)c(=O)oc3cc(OC)ccc23)cc1`: the results for the IC50 in test [1], in test [2] and in test [3] were 17.9 µM, 26.3 µM and greater than 10 µM, respectively.
What is called inhibition is the share of the control response that was lost under treatment. For the compound `COc1cc2/c(=N/c3ccc(Br)cc3F)nc[nH]c2cc1OCC1CCN(C)CC1` [VANDETANIB], the IC50 turned out to be 6.76 µM in test [4] and 16.5 µM in test [2]. The inhibition in test [5] turned out to be 95.7%.
On to `COc1ccc(-c2c(Nc3ccc(OCCN4CCCCC4)cc3)c3ccc(O)cc3oc2=O)cc1`, for which the IC50 is 16.2 µM in test [4], 14.4 µM in test [1], 11.4 µM in test [2] and 6.64 µM in test [3]. Moreover, in test [5], the inhibition stood at 59.3%.
As for `O=c1oc2cc(O)ccc2c(Oc2ccc(OCCN3CCCCC3)cc2)c1-c1ccc(O)cc1`, the IC50 in test [4] worked out at 23.9 µM; in test [1], 28.4 µM; in test [2], 19.7 µM; in test [3], 2.62 µM. Moreover, the inhibition in test [5] is 66.1%.
Take `COc1ccc(-c2c(Oc3ccc(OCCN4CCCC4)cc3)c3ccc(OC)cc3oc2=O)cc1`: the IC50 in test [1] is 8.53 µM; in test [2], 14.4 µM; in test [3] it was greater than 10 µM.
Turning to `CCN(CC)CCOc1ccc(Oc2c(-c3ccc(OC)cc3)c(=O)oc3cc(OC)ccc23)cc1`, the results for the IC50 in test [1], in test [2] and in test [3] were 9.32 µM, 15.3 µM and greater than 10 µM, respectively.
Taken in the same sequence, the figures for `CCN(CC)CCOc1ccc(Nc2c(-c3ccc(F)cc3)c(=O)oc3cc(O)ccc23)cc1` were 17.2 µM, 17.5 µM and 4.37 µM.
For `COc1ccc2c(Oc3ccc(OCCN(C)C)cc3)c(-c3ccc(F)cc3)c(=O)oc2c1`, in that order: 17.3 µM, 15.3 µM and 8.96 µM.
For the compound `COc1ccc2c(Nc3ccc(OCCN4CCCCC4)cc3)c(-c3ccc(F)cc3)c(=O)oc2c1`, the concentration for half-maximal inhibition (IC50) in test [4] stood at 9.05 µM; in test [1], 8.71 µM; in test [2], 12.6 µM; in test [3] it was 7.96 µM. This compound also yielded an inhibition in test [5] of 66%.
On to `CN(C)CCOc1ccc(Nc2c(-c3ccc(O)cc3)c(=O)oc3cc(O)ccc23)cc1`, for which the values for the IC50 in test [1], in test [2] and in test [3] were 30.2 µM, 28.4 µM and 8.21 µM, respectively.
With `O=c1oc2ccccc2c(Nc2ccc(OCCN3CCCCC3)cc2)c1-c1ccc(F)cc1`, the 50% inhibitory concentration (IC50) in test [4] stood at 17.2 µM; in test [1], 10.3 µM; in test [2] it was 11.3 µM; in test [3], 7.79 µM. In test [5], this compound registered an inhibition of 41.8%.
In the case of `CC/C(=C(\c1ccccc1)c1ccc(OCCN(C)C)cc1)c1ccccc1` [TAMOXIFEN], the figures for the half-maximal inhibitory concentration (IC50) in test [1] and in test [2] were 20.7 µM and 14.3 µM, respectively.
Consider `O=c1oc2cc(O)ccc2c(Oc2ccc(OCCN3CCCC3)cc2)c1-c1ccc(O)cc1`, for which the IC50 in test [1] came out at 24.5 µM; in test [2], 23.9 µM; in test [3], 6.84 µM.
For `COc1ccc(-c2c(Oc3ccc(OCCN4CCCCC4)cc3)c3ccc(OC)cc3oc2=O)cc1`, the IC50 in test [4] is 7.64 µM; in test [1], 7.47 µM; in test [2], 9.62 µM; in test [3] it was 9.42 µM. The compound further had an inhibition in test [5] of 67.6%.
As for `CN(C)CCOc1ccc(Oc2c(-c3ccc(F)cc3)c(=O)oc3cc(O)ccc23)cc1`, the IC50 in test [1] was found to be 18.7 µM; in test [2] it was 16.6 µM; in test [3], 6.43 µM.
For `O=c1oc2cc(O)ccc2c(Nc2ccc(OCCN3CCCC3)cc2)c1-c1ccc(O)cc1`, in that order: 26.7 µM, 20.7 µM and 6.43 µM.
For `CN(C)CCOc1ccc(Nc2c(-c3ccc(F)cc3)c(=O)oc3cc(O)ccc23)cc1`, in that order: 24.8 µM, 19.3 µM and 6.62 µM.
Taken in the same sequence, the figures for `COc1ccc2c(Nc3ccc(OCCN(C)C)cc3)c(-c3ccc(F)cc3)c(=O)oc2c1` were 13.5 µM, 31.6 µM and greater than 10 µM.
Regarding `O=c1oc2cc(O)ccc2c(Nc2ccc(OCCN3CCCCC3)cc2)c1-c1ccc(O)cc1`, the IC50 in test [4] was determined as 30.8 µM; in test [1] it was 24.6 µM; in test [2] it was 18.7 µM; in test [3], 3.82 µM. Also, the inhibition in test [5] came to 83.2%.
As for `COc1ccc2c(Oc3ccc(OCCN4CCCC4)cc3)c(-c3ccc(F)cc3)c(=O)oc2c1`, the IC50 was 15.1 µM in test [1], 14.6 µM in test [2] and greater than 10 µM in test [3].
Turning to `COc1ccc2c(Oc3ccc(OCCN4CCCCC4)cc3)c(-c3ccc(F)cc3)c(=O)oc2c1`, the IC50 in test [4] worked out at 13.6 µM; in test [1], 8.41 µM; in test [2], 9.32 µM; in test [3], 6.87 µM. For the same compound, in test [5], the inhibition came to 55.1%.
Turning to `CCN(CC)CCOc1ccc(Oc2c(-c3ccc(F)cc3)c(=O)oc3cc(O)ccc23)cc1`, the results for the IC50 in test [1], in test [2] and in test [3] were 17.4 µM, 21.3 µM and 3.55 µM, respectively.
As for `CCN(CC)CCOc1ccc(Oc2c(-c3ccc(F)cc3)c(=O)oc3cc(OC)ccc23)cc1`, the IC50 is 15.7 µM in test [1], 16.6 µM in test [2] and greater than 10 µM in test [3].
Turning to `CN(C)CCOc1ccc(Oc2c(-c3ccc(O)cc3)c(=O)oc3cc(O)ccc23)cc1`, the IC50 in test [1] amounted to 37 µM; in test [2], 41.4 µM; in test [3], 8.43 µM.
For `O=c1oc2cc(O)ccc2c(Nc2ccc(OCCN3CCCCC3)cc2)c1-c1ccc(F)cc1`, the IC50 worked out at 9.92 µM in test [4], 10.4 µM in test [1], 7.06 µM in test [2] and 3.86 µM in test [3]. This compound also returned an inhibition in test [5] of 88.4%.
`COc1ccc(-c2c(Oc3ccc(OCCN(C)C)cc3)c3ccc(OC)cc3oc2=O)cc1`: the values for the IC50 in test [1], in test [2] and in test [3] were 11.4 µM, 17.8 µM and greater than 10 µM, respectively.
For `O=c1oc2cc(O)ccc2c(Nc2ccc(OCCN3CCCC3)cc2)c1-c1ccc(F)cc1`, in that order: 21.5 µM, 13.9 µM and 4.53 µM.
As for `CCN(CC)CCOc1ccc(Nc2c(-c3ccc(O)cc3)c(=O)oc3cc(O)ccc23)cc1`, the IC50 in test [1] amounted to 29.1 µM; in test [2], 27.5 µM; in test [3], 5.97 µM.
For `CN(C)CCOc1ccc(Nc2c(-c3ccc(F)cc3)c(=O)oc3ccccc23)cc1`, in that order: 28.5 µM, 32.5 µM and greater than 10 µM.
Take `O=c1oc2cc(O)ccc2c(Oc2ccc(OCCN3CCCC3)cc2)c1-c1ccc(F)cc1`: the IC50 in test [1] was found to be 22.6 µM; in test [2] it was 16.8 µM; in test [3], 4.27 µM.
As for `COc1ccc2c(Nc3ccc(OCCN4CCCC4)cc3)c(-c3ccc(F)cc3)c(=O)oc2c1`, the figures for the half-maximal inhibitory concentration (IC50) in test [1], in test [2] and in test [3] were 12.5 µM, 21.5 µM and greater than 10 µM, respectively.
For the compound `CCN(CC)CCOc1ccc(Nc2c(-c3ccc(F)cc3)c(=O)oc3ccccc23)cc1`, the IC50 in test [1] was 24.7 µM; in test [2], 26.4 µM; in test [3], greater than 10 µM.
